Assay results taken from patent US20230373985A1 (Origenis Gmbh, priority 2020, published 2023).

Legend:
[1] = molecular target: T1, wt human NUAK1, full length (Homo sapiens, UniProt O60285); test: TR-FRET LanthaScreen Eu Kinase Binding Assay, NUAK1; conditions: read-out: IC50, Activity Toward NUAK1
T1 construct: 8 nM wt human NUAK1, full length (ThermoFisher/USA); purchased ThermoFisher
T1 sequence (O60285 1-661): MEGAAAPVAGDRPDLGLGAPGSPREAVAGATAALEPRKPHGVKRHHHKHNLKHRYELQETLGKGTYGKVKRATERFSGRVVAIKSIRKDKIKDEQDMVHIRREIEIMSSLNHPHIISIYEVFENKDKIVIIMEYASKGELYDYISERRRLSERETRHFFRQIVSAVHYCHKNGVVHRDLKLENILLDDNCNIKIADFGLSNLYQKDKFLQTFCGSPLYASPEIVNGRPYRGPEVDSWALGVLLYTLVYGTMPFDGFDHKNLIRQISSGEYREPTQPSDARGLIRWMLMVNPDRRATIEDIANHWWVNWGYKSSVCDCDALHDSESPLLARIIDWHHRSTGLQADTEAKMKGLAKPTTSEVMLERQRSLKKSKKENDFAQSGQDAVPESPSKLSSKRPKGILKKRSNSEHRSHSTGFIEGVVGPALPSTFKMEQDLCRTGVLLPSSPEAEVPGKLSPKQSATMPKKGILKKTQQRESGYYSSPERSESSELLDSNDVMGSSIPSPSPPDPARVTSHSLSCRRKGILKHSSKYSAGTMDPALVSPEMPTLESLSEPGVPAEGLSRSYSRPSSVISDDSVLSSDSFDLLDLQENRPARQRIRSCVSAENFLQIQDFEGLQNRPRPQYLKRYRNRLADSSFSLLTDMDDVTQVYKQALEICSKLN
Description: The basic protocol for TR-FRET LanthaScreen Eu Kinase Binding Assay inhibitor studies were performed as follows. LanthaScreen Kinase Binding Assays (ThermoFisher/USA) to evaluate inhibitors were performed by addition of 5 μL of test compound in corresponding DMSO dilutions/5 μl of kinase/antibody mixture, 5 μL of tracer into 384 well small volume plates. After incubation for 1 hour at room temperature, plates were read. Data analysis of emission ratios was according LanthaScreen Eu Kinase Binding Assay protocol.
Kinase and assay components were adjusted to final concentrations according to kit protocol. For LRRK2: 5 nM wt human LRRK2, catalytic site, or G2019S human LRRK2, catalytic site (ThermoFisher/USA), 2 nM Eu-Anti-GST Antibody, 10 nM Kinase Tracer 236 in 1× Kinase Buffer A. For NUAK1: 8 nM wt human NUAK1, full length (ThermoFisher/USA), 2 nM Eu-Anti-His Antibody, 5 nM Kinase Tracer 236 in 1× Kinase Buffer A.

[2] = molecular target: T2, wt human TYK2, catalytic site (Homo sapiens, UniProt P29597); test: HTRF KinEASE assay, TYK2; type: biochemical; conditions: 1 μM ATP; read-out: IC50, Activity Toward TYK2
T2 construct: wt human TYK2, catalytic site; purchased SignalChem
T2 sequence (P29597 897-1176 limits assumed): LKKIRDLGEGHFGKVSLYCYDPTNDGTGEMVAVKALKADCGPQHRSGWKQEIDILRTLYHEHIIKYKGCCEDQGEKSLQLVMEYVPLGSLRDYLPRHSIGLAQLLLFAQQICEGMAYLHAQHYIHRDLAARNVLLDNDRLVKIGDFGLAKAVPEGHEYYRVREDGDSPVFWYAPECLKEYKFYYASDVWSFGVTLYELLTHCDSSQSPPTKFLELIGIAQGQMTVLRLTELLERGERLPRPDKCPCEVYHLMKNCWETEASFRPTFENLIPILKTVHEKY
How it was run: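 HTRF KinEASE-TK readout with 1 μM biotinylated TK substrate in 1× kinase buffer, ≥30 min at room temperature, then antibody/streptavidin-XL665 detection for 60 min. TYK2 at 2 nM with 1 μM ATP; JAK2 at 1 nM with 100 μM ATP. Analysis uses emission ratios.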

[3] = molecular target: T3, wt human JAK1, catalytic site (Homo sapiens, UniProt P23458); test: HTRF KinEASE assay, JAK1; type: biochemical; conditions: 2.5 μM ATP; read-out: IC50, Activity Toward JAK1
T3 construct: wt human JAK1, catalytic site; purchased ThermoFisher
How it was run: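 Two-step HTRF KinEASE assay: compound, kinase/biotinylated TK substrate and ATP were incubated at least 30 min at room temperature. Antibody plus streptavidin-XL665 was then added and plates were read after 60 min. Inhibition was derived from emission ratios according to the kit protocol.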

[4] = molecular target: T4, G2019S human LRRK2, catalytic site (Homo sapiens, UniProt Q5S007, G2019S); test: TR-FRET LanthaScreen Eu Kinase Binding Assay, LRRK2 G2019S; conditions: LRRK2(G2019); one range stated for wt and G2019; read-out: IC50, Activity Toward LRRK2(G2019)
T4 construct: G2019S human LRRK2, catalytic site; purchased ThermoFisher
How it was run: (§1)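 Competitive tracer-displacement TR-FRET, 1 h at room temperature, read as emission ratio. LRRK2 (wt or G2019S catalytic domain) at 5 nM with 2 nM Eu-anti-GST and 10 nM Tracer 236; full-length NUAK1 at 8 nM with 2 nM Eu-anti-His and 5 nM Tracer 236, all final in Kinase Buffer A.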

[5] = molecular target: T5, wt human LRRK2, catalytic site (Homo sapiens, UniProt Q5S007); test: TR-FRET LanthaScreen Eu Kinase Binding Assay, LRRK2 wt; conditions: one range stated for wt and G2019, read-out: IC50, Activity Toward LRRK2(Wt)
T5 construct: 5 nM wt human LRRK2, catalytic site; purchased ThermoFisher
How it was run: as §1

T3 sequence (P23458 875-1153 limits assumed): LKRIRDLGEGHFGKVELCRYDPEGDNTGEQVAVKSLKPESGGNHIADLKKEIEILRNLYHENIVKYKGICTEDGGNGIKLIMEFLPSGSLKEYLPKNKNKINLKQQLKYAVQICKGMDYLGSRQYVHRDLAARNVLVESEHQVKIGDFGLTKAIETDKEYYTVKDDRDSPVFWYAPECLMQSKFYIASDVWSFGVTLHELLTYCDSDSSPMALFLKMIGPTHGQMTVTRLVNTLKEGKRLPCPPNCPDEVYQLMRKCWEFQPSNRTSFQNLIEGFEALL
T5 sequence (Q5S007 970-2527 limits assumed): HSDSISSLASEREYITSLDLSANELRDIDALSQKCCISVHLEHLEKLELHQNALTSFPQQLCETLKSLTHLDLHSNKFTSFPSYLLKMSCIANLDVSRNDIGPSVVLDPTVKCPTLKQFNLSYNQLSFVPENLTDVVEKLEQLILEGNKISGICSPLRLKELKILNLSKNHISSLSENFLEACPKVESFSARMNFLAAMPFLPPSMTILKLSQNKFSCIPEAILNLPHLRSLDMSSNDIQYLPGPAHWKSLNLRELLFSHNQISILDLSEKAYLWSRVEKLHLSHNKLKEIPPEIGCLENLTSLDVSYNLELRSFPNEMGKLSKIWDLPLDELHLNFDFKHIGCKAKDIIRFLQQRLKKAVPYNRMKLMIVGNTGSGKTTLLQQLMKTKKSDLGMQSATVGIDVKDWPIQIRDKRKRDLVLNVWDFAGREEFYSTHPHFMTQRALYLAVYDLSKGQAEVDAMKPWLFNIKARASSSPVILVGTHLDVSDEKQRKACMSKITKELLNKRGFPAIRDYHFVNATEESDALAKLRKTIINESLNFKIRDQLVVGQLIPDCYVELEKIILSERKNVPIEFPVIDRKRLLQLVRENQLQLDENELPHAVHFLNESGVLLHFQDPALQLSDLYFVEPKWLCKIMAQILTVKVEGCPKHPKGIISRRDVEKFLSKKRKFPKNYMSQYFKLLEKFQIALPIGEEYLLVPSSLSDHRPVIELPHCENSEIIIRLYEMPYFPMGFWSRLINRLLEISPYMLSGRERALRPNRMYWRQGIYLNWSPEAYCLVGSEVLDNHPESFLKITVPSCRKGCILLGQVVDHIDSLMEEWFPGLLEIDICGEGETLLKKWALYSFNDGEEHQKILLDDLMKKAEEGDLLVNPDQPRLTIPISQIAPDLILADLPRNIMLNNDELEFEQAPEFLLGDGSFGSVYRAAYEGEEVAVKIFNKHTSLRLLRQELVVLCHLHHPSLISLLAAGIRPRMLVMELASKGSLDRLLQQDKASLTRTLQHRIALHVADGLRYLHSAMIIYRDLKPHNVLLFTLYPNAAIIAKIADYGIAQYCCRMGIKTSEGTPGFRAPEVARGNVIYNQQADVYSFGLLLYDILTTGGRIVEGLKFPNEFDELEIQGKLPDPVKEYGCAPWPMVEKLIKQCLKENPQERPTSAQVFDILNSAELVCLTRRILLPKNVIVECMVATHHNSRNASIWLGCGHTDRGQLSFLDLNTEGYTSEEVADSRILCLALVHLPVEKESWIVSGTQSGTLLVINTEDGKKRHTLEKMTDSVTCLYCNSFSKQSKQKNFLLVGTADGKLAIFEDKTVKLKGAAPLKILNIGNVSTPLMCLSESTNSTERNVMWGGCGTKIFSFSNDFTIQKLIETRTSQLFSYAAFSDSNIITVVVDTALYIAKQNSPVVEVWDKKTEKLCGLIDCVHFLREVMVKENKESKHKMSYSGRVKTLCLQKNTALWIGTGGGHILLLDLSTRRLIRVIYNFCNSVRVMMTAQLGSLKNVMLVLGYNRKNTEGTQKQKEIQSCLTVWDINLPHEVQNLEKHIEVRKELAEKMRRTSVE
T4 sequence (Q5S007 970-2527 G2019S limits assumed): as the sequence (Q5S007 970-2527 limits assumed) above, with G1050S counted along it

| IC50 [1] [nM] | IC50 [2] [nM] | IC50 [3] [nM] | IC50 [4] [nM] | IC50 [5] [nM] | Structure (SMILES) |
| --- | --- | --- | --- | --- | --- |
| 100 to 1000 | < 10 | 10 to 100 |  |  | CN1CCCN(C(=O)c2ccc(Nc3cn(-c4c(Cl)cccc4Cl)nc3C(N)=O)cc2)CC1 [compound 91, 1-(2,6-dichlorophenyl)-4-((4-(4-methyl-1,4-diazepane-1-carbonyl)phenyl)amino)-1H-pyrazole-3-carboxamide] |
| 100 to 1000 | 100 to 1000 |  |  |  | NC(=O)c1nn(-c2c(Cl)cccc2Cl)cc1Nc1cnc(C(=O)N2CC[C@@H](F)C2)cn1 [compound 403, (R)-1-(2,6-dichlorophenyl)-4-((5-(3-fluoropyrrolidine-1-carbonyl)pyrazin-2-yl)amino)-1H-pyrazole-3-carboxamide] |
| 100 to 1000 | < 10 | 100 to 1000 |  |  | NC(=O)c1nn(-c2c(Cl)cccc2Cl)cc1Nc1ccc(-c2nc(C(F)(F)F)cn2CCO)cc1 [compound 338, 1-(2,6-dichlorophenyl)-4-((4-(1-(2-hydroxyethyl)-4-(trifluoromethyl)-1H-imidazol-2-yl)phenyl)amino)-1H-pyrazole-3-carboxamide] |
| 100 to 1000 | 100 to 1000 | 100 to 1000 |  |  | NC(=O)c1nn(-c2c(Cl)cccc2Cl)cc1Nc1cn[nH]c1 [compound 407, 4-((1H-pyrazol-4-yl)amino)-1-(2,6-dichlorophenyl)-1H-pyrazole-3-carboxamide] |
| 100 to 1000 | < 10 | 10 to 100 |  |  | CN(C)CCn1cnnc1-c1ccc(Nc2cn(-c3c(Cl)cccc3Cl)nc2C(N)=O)cc1 [compound 214, 1-(2,6-dichlorophenyl)-4-((4-(4-(2-(dimethylamino)ethyl)-4H-1,2,4-triazol-3-yl)phenyl)amino)-1H-pyrazole-3-carboxamide] |
| 100 to 1000 | 10 to 100 | 100 to 1000 |  |  | Cc1nc2cc(Nc3cn(-c4c(F)cccc4Cl)nc3C(N)=O)ccc2n1C [compound 44, 1-(2-chloro-6-fluorophenyl)-4-((1,2-dimethyl-1H-benzo[d]imidazol-5-yl)amino)-1H-pyrazole-3-carboxamide] |
| 100 to 1000 | < 10 | 100 to 1000 |  |  | CN1CCC(Oc2ccc(Nc3cn(-c4c(Cl)cccc4Cl)nc3C(N)=O)cc2)CC1 [compound 237, 1-(2,6-dichlorophenyl)-4-((4-((1-methylpiperidin-4-yl)oxy)phenyl)amino)-1H-pyrazole-3-carboxamide] |
| 100 to 1000 | 10 to 100 | 10 to 100 |  |  | COCCc1ncnn1-c1ccc(Nc2cn(-c3c(Cl)cccc3Cl)nc2C(N)=O)cc1 [compound 327, 1-(2,6-dichlorophenyl)-4-((4-(5-(2-methoxyethyl)-1H-1,2,4-triazol-1-yl)phenyl)amino)-1H-pyrazole-3-carboxamide] |
|  | < 10 | 10 to 100 | 100 to 1000 | 100 to 1000 | CCn1nc(C(F)(F)F)nc1-c1ccc(Nc2cn(-c3c(F)cccc3F)nc2C(N)=O)cc1 [compound 302, 1-(2,6-difluorophenyl)-4-((4-(1-ethyl-3-(trifluoromethyl)-1H-1,2,4-triazol-5-yl)phenyl)amino)-1H-pyrazole-3-carboxamide] |
|  | 100 to 1000 | 100 to 1000 | 100 to 1000 | 100 to 1000 | Cc1ccncc1-c1ccc(Nc2cn(-c3c(Cl)cccc3Cl)nc2C(N)=O)cn1 [compound 394, 1-(2,6-dichlorophenyl)-4-((4′-methyl-[2,3′-bipyridin]-5-yl)amino)-1H-pyrazole-3-carboxamide] |
|  | < 10 | 100 to 1000 | 100 to 1000 | 100 to 1000 | CN1CCC(NS(=O)(=O)c2ccc(Nc3cn(-c4c(Cl)cccc4Cl)nc3C(N)=O)cc2)CC1 [compound 89, 1-(2,6-dichlorophenyl)-4-((4-(N-(1-methylpiperidin-4-yl)sulfamoyl)phenyl)amino)-1H-pyrazole-3-carboxamide] |
|  | < 10 | < 10 | 100 to 1000 | 100 to 1000 | Cn1nc(C(F)(F)F)nc1-c1ccc(Nc2cn(-c3c(F)cccc3Cl)nc2C(N)=O)cc1 [compound 231, 1-(2-chloro-6-fluorophenyl)-4-((4-(1-methyl-3-(trifluoromethyl)-1H-1,2,4-triazol-5-yl)phenyl)amino)-1H-pyrazole-3-carboxamide] |
|  | 10 to 100 | 10 to 100 | 100 to 1000 | 100 to 1000 | NC(=O)c1nn(-c2c(Cl)cccc2Cl)cc1Nc1ccc(-c2cccnn2)cc1 [compound 49, 1-(2,6-dichlorophenyl)-4-((4-(pyridazin-3-yl)phenyl)amino)-1H-pyrazole-3-carboxamide] |
|  | 10 to 100 | 10 to 100 | 100 to 1000 | 100 to 1000 | N#Cc1cn(CCO)c(-c2ccc(Nc3cn(-c4c(Cl)cccc4Cl)nc3C(N)=O)cn2)n1 [compound 387, 4-((6-(4-cyano-1-(2-hydroxyethyl)-1H-imidazol-2-yl)pyridin-3-yl)amino)-1-(2,6-dichlorophenyl)-1H-pyrazole-3-carboxamide] |
|  | 100 to 1000 | 100 to 1000 | 100 to 1000 | 100 to 1000 | NC(=O)c1nn(-c2c(F)cccc2F)cc1Nc1cccc(C(=O)N2CCOCC2)c1 [compound 18, 1-(2,6-difluorophenyl)-4-((3-(morpholine-4-carbonyl)phenyl)amino)-1H-pyrazole-3-carboxamide] |
|  | 10 to 100 | 10 to 100 | 100 to 1000 | 100 to 1000 | Cc1c[n+]([O-])ccc1-c1ccc(Nc2cn(-c3c(Cl)cccc3Cl)nc2C(N)=O)cc1 [compound 267, 4-(4-((3-carbamoyl-1-(2,6-dichlorophenyl)-1H-pyrazol-4-yl)amino)phenyl)-3-methylpridine_1-oxide] |
|  | < 10 | 10 to 100 | 100 to 1000 | 100 to 1000 | NC(=O)c1nn(-c2c(Cl)cccc2Cl)cc1Nc1ccc(-c2nncn2/C=C/F)cc1 [compound 415, (E)-1-(2,6-dichlorophenyl)-4-((4-(4-(2-fluorovinyl)-4H-1,2,4-triazol-3-yl)phenyl)amino)-1H-pyrazole-3-carboxamide] |
|  | < 10 | 100 to 1000 | 100 to 1000 | 100 to 1000 | NC(=O)c1nn(-c2c(Cl)cccc2Cl)cc1Nc1ccc(C(=O)N2CCN(CC(F)F)CC2)cc1 [compound 83, 1-(2,6-dichlorophenyl)-4-((4-(4-(2,2-difluoroethyl)piperazine-1-carbonyl)phenyl)amino)-1H-pyrazole-3-carboxamide] |
